Values quoted from earlier work, collected in patent publication US20050107350A1, “Method for the treatment or prevention of bone disorders with a cyclooxygenase-2 inhibitor alone and in combination with a bone disorder treatment agent and compositions therewith” (Pharmacia Corporation, priority 2003, published 2005).
Where a name gives a salt, the structure may show the parent alone.

What was measured:
osteoporosis patients [1] = tested on: osteoporosis patients
patients = conditions: human, in vivo
osteoporosis patients [2] = conditions: human, in vivo
rats = conditions: rat, in vivo

Compound: NCCCC(O)(P(=O)(O)O)P(=O)(O)O [alendronate, 4-amino-1-hydroxybulylidene bisphophonic acid]
- average improvement of patient's BMD (osteoporosis patients [1]; after three years of treatment): 8%
- patients treated who show an increase in BMD at the lumbar spine (osteoporosis patients [1]; lumbar spine): ≤ 95%
- common side effects (patients): can irritate the lining of the upper gastrointestinal tract

Compound: CC(C)C[C@H](NC(=O)[C@H](CCCCN)NC(=O)CNC(=O)[C@H](CC(C)C)NC(=O)[C@@H](NC(=O)[C@@H]1CSSC[C@H](N)C(=O)N[C@@H](CO)C(=O)N[C@@H](CC(N)=O)C(=O)N[C@@H](CC(C)C)C(=O)N[C@@H](CO)C(=O)N[C@@H]([C@@H](C)O)C(=O)N1)C(C)C)C(=O)N[C@@H](CO)C(=O)N[C@@H](CCC(N)=O)C(=O)N[C@@H](CCC(=O)O)C(=O)N[C@@H](CC(C)C)C(=O)N[C@@H](Cc1c[nH]cn1)C(=O)N[C@@H](CCCCN)C(=O)N[C@@H](CC(C)C)C(=O)N[C@@H](CCC(N)=O)C(=O)N[C@H](C(=O)N[C@@H](Cc1ccc(O)cc1)C(=O)N1CCC[C@H]1C(=O)N[C@@H](CCCNC(=N)N)C(=O)N[C@H](C(=O)N[C@@H](CC(N)=O)C(=O)N[C@H](C(=O)NCC(=O)N[C@@H](CO)C(=O)NCC(=O)N[C@H](C(=O)N1CCC[C@H]1C(N)=O)[C@@H](C)O)[C@@H](C)O)[C@@H](C)O)[C@@H](C)O [calcitonin]
- improvement of BMD (osteoporosis patients [1]; intranasal, after 2 years of treatment): 1-2%
- common side effects (patients): flushing, nausea, vomiting, and diarrhea

Compound: O=C(c1ccc(OCCN2CCCCC2)cc1)c1c(-c2ccc(O)cc2)sc2cc(O)ccc12 [raloxifene, Methanone, [6-hydroxy-2-(4-hydroxyphenyl)benzo[b]thien-3-yl] - [4-[2-(1-piperidinyl)ethoxy]phenyl]-, hydrochloride]
- decrease of vertebral fractures (osteoporosis patients [2]): 50%
- increase of BMD of the lumbar spine and hip (osteoporosis patients [1]; over 2-3 years of treatment): 2-3%
- common side effects (patients): leg cramps and hot flashes
- effect on risk of breast cancer (patients): significantly decreases the risk of breast cancer

Compound: PTH: parathyroid hormone, the only anabolic agent currently available
- increase of BMD in the spine (osteoporosis patients [1]; Neer et al., NEJM 2001): ≤ 13%
- common side effects (patients): nausea, headaches, and leg cramps
- bone tumors (rats): increase in bone tumors
